Reference: the supplement of paper PMC4862054

What was measured:
Conditions in all cases: incubation time: 72 h
DU-4475 [1] = assay: normalised viability (% of control), CellTiter-Blue; higher = more viable cells (about 100 = DMSO control)
Procedure: (§1)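 DSRT, CellTiter-Blue viability, 72 h incubation. Signal is normalised to DMSO and benzethonium chloride controls. Value is the normalised response at dose 3.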

BT-474 [2] = assay: as above
Procedure: as §1

HCC1937 [3] = assay: as above
Procedure: as §1

CAL-85-1 [4] = assay: as above
Procedure: as §1

MDA-MB-453 [5] = assay: as above
Procedure: as §1

CAL-51 [6] = assay: as above
Procedure: as §1

MDA-MB-468 = assay: as above
Procedure: as §1

MDA-MB-231 [7] = assay: as above
Procedure: as §1

HCC1143 = assay: as above
Procedure: as §1

HCC1599 [8] = assay: as above
Procedure: as §1

CAL-148 [9] = assay: as above
Procedure: as §1

CAL-120 = assay: as above
Procedure: as §1

HDQ-P1 [10] = assay: as above
Procedure: as §1

DU-4475 [11] = assay: drug sensitivity score (DSS), CellTiter-Blue viability (DSS (AUC-based score)); higher = stronger viability inhibition; extreme values may be limits of the assay
Procedure: (§2)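 DSRT with the CellTiter-Blue (resazurin reduction) viability readout, fluorescence 560/590 nm, 72 h incubation. Plates were normalised to DMSO and benzethonium chloride controls. DSS is computed from the area under the fitted dose-response curve (5 or 9 concentrations).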

BT-474 [12] = assay: as above
Procedure: as §2

HCC1937 [13] = assay: as above
Procedure: as §2

MDA-MB-453 [14] = assay: as above
Procedure: as §2

MFM-223 = assay: as above
Procedure: as §2

MDA-MB-231 [15] = assay: as above
Procedure: as §2

BT-549 = assay: as above
Procedure: as §2

MDA-MB-436 = assay: as above
Procedure: as §2

HCC1599 [16] = assay: as above
Procedure: as §2

Hs578T = assay: as above
Procedure: as §2

DU-4475 [17] = assay: normalised viability (% of control), CellTiter-Blue; higher = more viable cells (about 100 = DMSO control); remark: listed apart in the source
Procedure: (§3)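 DSRT, CellTiter-Blue viability, 72 h incubation. Signal is normalised to DMSO and benzethonium chloride controls. Value is the normalised response at dose 9.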

CAL-85-1 [18] = assay: as above; remark: listed apart in the source
Procedure: as §3

MDA-MB-453 [19] = assay: as above; remark: listed apart in the source
Procedure: as §3

CAL-51 [20] = assay: as above; remark: listed apart in the source
Procedure: as §3

CAL-148 [21] = assay: as above; remark: listed apart in the source
Procedure: as §3

HDQ-P1 [22] = assay: as above; remark: listed apart in the source
Procedure: as §3

CN1CC[C@H](c2c(O)cc(O)c3c(=O)cc(-c4ccccc4Cl)oc23)[C@H](O)C1 [Alvocidib]
normalised viability (DU-4475 [1]; 10 nM): 93% | normalised viability (BT-474 [2]; 100 nM): 96.4% | normalised viability (HCC1937 [3]; 100 nM): 69.4% | normalised viability (CAL-85-1 [4]; 10 nM): 93.8% | normalised viability (MDA-MB-453 [5]; 10 nM): 98.1% | normalised viability (CAL-51 [6]; 10 nM): 103% | normalised viability (MDA-MB-468; 100 nM): 91.5% | normalised viability (MDA-MB-231 [7]; 100 nM): 82.9% | normalised viability (HCC1143; 100 nM): 69.7% | normalised viability (HCC1599 [8]; 100 nM): 82.4% | normalised viability (CAL-148 [9]; 10 nM): 85.4% | normalised viability (CAL-120; 100 nM): 68.2% | normalised viability (HDQ-P1 [10]; 10 nM): 106% | drug sensitivity score (DU-4475 [11]): 22.4 | drug sensitivity score (BT-474 [12]): 14.5 | drug sensitivity score (HCC1937 [13]): 19.1 | drug sensitivity score (MDA-MB-453 [14]): 19.6 | drug sensitivity score (MFM-223): 19.2 | drug sensitivity score (MDA-MB-231 [15]): 19.6 | drug sensitivity score (BT-549): 17.2 | drug sensitivity score (MDA-MB-436): 15.6 | drug sensitivity score (HCC1599 [16]): 17.4 | drug sensitivity score (Hs578T): 22.8

CN1CC[C@H](c2c(O)cc(O)c3c(=O)cc(-c4ccccc4Cl)oc23)[C@H](O)C1 [Alvocidib] (10000 nM)
normalised viability (DU-4475 [17]): 1.22% | normalised viability (CAL-85-1 [18]): 2.66% | normalised viability (MDA-MB-453 [19]): 10.1% | normalised viability (CAL-51 [20]): 5.62% | normalised viability (CAL-148 [21]): 17% | normalised viability (HDQ-P1 [22]): 16.4%

Nc1nc(Cl)nc2c1ncn2[C@H]1C[C@H](O)[C@@H](CO)O1 [Cladribine]
normalised viability (DU-4475 [1]; 1 nM): 108% | normalised viability (BT-474 [2]; 10 nM): 118% | normalised viability (HCC1937 [3]; 10 nM): 84.8% | normalised viability (CAL-85-1 [4]; 1 nM): 107% | normalised viability (MDA-MB-453 [5]; 1 nM): 112% | normalised viability (CAL-51 [6]; 1 nM): 114% | normalised viability (MDA-MB-468; 10 nM): 104% | normalised viability (MDA-MB-231 [7]; 10 nM): 83% | normalised viability (HCC1143; 10 nM): 85.5% | normalised viability (HCC1599 [8]; 10 nM): 105% | normalised viability (CAL-148 [9]; 1 nM): 97.4% | normalised viability (CAL-120; 10 nM): 97.4% | normalised viability (HDQ-P1 [10]; 1 nM): 120% | drug sensitivity score (DU-4475 [11]): 1.23 | drug sensitivity score (BT-474 [12]): 0 | drug sensitivity score (HCC1937 [13]): 8.9 | drug sensitivity score (MDA-MB-453 [14]): 0 | drug sensitivity score (MFM-223): 0 | drug sensitivity score (MDA-MB-231 [15]): 7.23 | drug sensitivity score (BT-549): 3.51 | drug sensitivity score (MDA-MB-436): 1.7 | drug sensitivity score (HCC1599 [16]): 0 | drug sensitivity score (Hs578T): 0

Nc1nc(Cl)nc2c1ncn2[C@H]1C[C@H](O)[C@@H](CO)O1 [Cladribine] (1000 nM)
normalised viability (DU-4475 [17]): 40.3% | normalised viability (CAL-85-1 [18]): 67.8% | normalised viability (MDA-MB-453 [19]): 73.7% | normalised viability (CAL-51 [20]): 69.8% | normalised viability (CAL-148 [21]): 52.4% | normalised viability (HDQ-P1 [22]): 104%
